Experiment [1] addresses T1, Cannabinoid receptor 1 (Homo sapiens, UniProt P21554). The experiment can be described thus: Displacement of [3H]CP55,940 from human recombinant CB1 receptor expressed in CHO-K1 cells at 10 uM. The class given is cell-based. A general note: Loss of bound radioactivity is the signal in a displacement assay; it reports binding, not function.
Experiment [2] concerns the target Cannabinoid receptor 1 (Rattus norvegicus, UniProt P20272). Description: Displacement of [3H]CP55,940 from CB1 receptor in rat brain cortical membranes. The class given is cell membranes.
The target of experiment [3] is T2, G-protein coupled receptor 55 (Homo sapiens, UniProt Q9Y2T6). The experiment can be described thus: Antagonist activity against human GPR55 expressed in CHO cells assessed as reduction in LPI-induced beta-arrestin recruitment by beta-galactosidase enzyme fragment complementation method. The class given is cell-based. For orientation: Recruitment of arrestin is a read-out of receptor activation apart from second messengers.

For experiment [4], the target named is T1, Cannabinoid receptor 1. Description: Displacement of [3H]CP55,940 from human recombinant CB1 receptor expressed in CHO-K1 cells. The class given is cell-based.
Experiment [5] concerns the target T3, Cannabinoid receptor 2 (Homo sapiens, UniProt P34972). The experiment can be described thus: Displacement of [3H]CP55,940 from human recombinant CB2 receptor expressed in HEK293 cells at 10 uM. The class given is cell-based.
Experiment [6] addresses T4, N-arachidonyl glycine receptor (Homo sapiens) (UniProt Q14330).
T4 sequence (whole entry): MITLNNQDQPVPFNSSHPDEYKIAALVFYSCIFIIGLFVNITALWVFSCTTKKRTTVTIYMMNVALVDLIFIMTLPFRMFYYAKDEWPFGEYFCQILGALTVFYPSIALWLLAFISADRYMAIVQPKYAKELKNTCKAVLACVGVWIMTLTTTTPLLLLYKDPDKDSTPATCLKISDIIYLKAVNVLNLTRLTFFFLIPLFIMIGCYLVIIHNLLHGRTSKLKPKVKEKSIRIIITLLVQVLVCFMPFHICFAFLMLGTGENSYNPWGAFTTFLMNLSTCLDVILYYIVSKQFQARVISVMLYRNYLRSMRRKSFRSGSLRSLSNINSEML
The experiment can be described thus: Antagonist activity against human GPR18 expressed in CHO cells assessed as reduction in delta9-THC-induced beta-arrestin recruitment at 10 uM by beta-galactosidase enzyme fragment complementation method. The class given is cell-based.

In experiment [7] the target is T2, G-protein coupled receptor 55. The experiment can be described thus: Agonist activity at human GPR55 expressed in CHO cells assessed as induction of LPI-induced beta-arrestin recruitment by beta-galactosidase enzyme fragment complementation method relative to LPI. Also on record: concentration or dose not given beside the values. The class given is cell-based.

Experiment [8] has as its target T4, N-arachidonyl glycine receptor (Homo sapiens). The experiment can be described thus: Agonist activity at human GPR18 expressed in CHO cells assessed as induction of beta-arrestin recruitment by beta-galactosidase enzyme fragment complementation method relative to delta9-THC. Also noted: concentration or dose not given beside the values. The class given is cell-based.

Experiment [9] deals with T3, Cannabinoid receptor 2. The experiment can be described thus: Displacement of [3H]CP55,940 from human recombinant CB2 receptor expressed in HEK293 cells. Format: cell-based.
For experiment [10], the target named is Cannabinoid receptor 1 (Rattus norvegicus) (UniProt P20272). Description: Displacement of [3H]CP55,940 from CB1 receptor in rat brain cortical membranes at 10 uM. Format: cell membranes.
In experiment [11] the target is T5, N-arachidonyl glycine receptor (Homo sapiens, UniProt Q14330).
T5 sequence (Q14330 whole entry): T4 sequence (whole entry)
Description: Antagonist activity against human GPR18 expressed in CHO cells assessed as reduction in delta9-THC-induced beta-arrestin recruitment by beta-galactosidase enzyme fragment complementation method. The class given is cell-based.

Experiment [12] concerns the target T2, G-protein coupled receptor 55. Description: Antagonist activity against human GPR55 expressed in CHO cells assessed as reduction in LPI-induced beta-arrestin recruitment at 10 uM by beta-galactosidase enzyme fragment complementation method. Format: cell-based.
Experiment [13] addresses Cannabinoid receptor 1 (Rattus norvegicus) (UniProt P20272). The experiment can be described thus: Intrinsic activity at CB1 receptor in rat brain cortical membranes assessed as stimulation of [35S]GTPgammaS binding at 10 uM by liquid scintillation counting method relative to CP55,940. Format: functional, cell membranes. (In general: GTPγS is a poorly hydrolysed GTP analogue; its binding reports G protein activation.)

For experiment [14], the target named is T1, Cannabinoid receptor 1. Description: Intrinsic activity at human recombinant CB1 receptor expressed in HEK293 cell membranes assessed as stimulation of [35S]GTPgammaS binding at 10 uM by liquid scintillation counting method relative to CP55,940. The class given is functional.

Molecules are shown by their SMILES.

Cannabinoid receptor 1 (Rattus norvegicus, UniProt P20272), sequence (P20272 whole entry, the tested form may be a part): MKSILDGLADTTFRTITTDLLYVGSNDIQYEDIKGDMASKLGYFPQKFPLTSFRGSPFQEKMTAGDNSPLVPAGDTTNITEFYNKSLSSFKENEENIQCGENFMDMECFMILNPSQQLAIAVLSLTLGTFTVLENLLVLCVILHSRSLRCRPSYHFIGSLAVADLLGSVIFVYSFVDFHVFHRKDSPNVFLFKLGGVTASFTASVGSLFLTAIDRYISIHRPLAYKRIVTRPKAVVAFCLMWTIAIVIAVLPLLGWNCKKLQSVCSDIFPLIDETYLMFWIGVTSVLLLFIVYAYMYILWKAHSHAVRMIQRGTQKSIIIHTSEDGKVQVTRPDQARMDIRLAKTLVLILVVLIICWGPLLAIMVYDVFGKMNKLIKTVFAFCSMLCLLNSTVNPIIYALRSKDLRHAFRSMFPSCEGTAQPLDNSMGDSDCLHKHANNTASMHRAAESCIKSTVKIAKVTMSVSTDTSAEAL
Cannabinoid receptor 1 (Rattus norvegicus), sequence (P20272 whole entry): as the sequence (P20272 whole entry, the tested form may be a part) above
T3 sequence (P34972 whole entry): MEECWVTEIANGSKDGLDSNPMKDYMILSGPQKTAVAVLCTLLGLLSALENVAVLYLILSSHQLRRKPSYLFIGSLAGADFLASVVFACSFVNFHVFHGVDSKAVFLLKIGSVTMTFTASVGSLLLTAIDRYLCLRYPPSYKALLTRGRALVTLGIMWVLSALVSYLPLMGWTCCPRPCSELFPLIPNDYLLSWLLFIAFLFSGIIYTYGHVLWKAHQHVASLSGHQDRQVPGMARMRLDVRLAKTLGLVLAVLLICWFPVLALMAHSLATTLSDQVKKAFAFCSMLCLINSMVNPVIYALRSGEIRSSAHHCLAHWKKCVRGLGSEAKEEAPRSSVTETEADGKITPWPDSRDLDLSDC
T1 sequence (P21554 whole entry): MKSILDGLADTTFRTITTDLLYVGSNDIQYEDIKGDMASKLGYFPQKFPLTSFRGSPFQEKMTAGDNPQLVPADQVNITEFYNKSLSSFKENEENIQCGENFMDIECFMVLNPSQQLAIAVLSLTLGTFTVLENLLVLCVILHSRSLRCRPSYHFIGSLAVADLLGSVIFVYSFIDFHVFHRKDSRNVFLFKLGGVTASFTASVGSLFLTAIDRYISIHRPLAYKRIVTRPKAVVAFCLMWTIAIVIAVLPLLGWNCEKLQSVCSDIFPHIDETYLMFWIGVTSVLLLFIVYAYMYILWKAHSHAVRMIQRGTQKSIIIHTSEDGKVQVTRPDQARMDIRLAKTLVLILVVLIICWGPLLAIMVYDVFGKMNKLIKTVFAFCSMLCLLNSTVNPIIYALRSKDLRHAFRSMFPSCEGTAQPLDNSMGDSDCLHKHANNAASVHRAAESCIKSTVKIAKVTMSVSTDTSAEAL
T2 sequence (Q9Y2T6 whole entry, the tested form may be a part): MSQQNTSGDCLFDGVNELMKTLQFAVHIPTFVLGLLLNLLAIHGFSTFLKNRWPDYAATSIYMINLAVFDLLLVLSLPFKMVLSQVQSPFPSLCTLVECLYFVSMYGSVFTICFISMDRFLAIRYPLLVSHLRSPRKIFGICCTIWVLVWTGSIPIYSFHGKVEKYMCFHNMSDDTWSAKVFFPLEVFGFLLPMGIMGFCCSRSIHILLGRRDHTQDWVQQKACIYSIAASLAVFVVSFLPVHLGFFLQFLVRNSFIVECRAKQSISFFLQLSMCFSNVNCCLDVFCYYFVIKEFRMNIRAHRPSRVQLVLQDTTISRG

Take `CC(C)c1ccc(/C=C2\N=C3SCCCN3C2=O)cc1`: the inhibition (commonly the relative decrease from the control value, in per cent) at Cannabinoid receptor 1 [1] came out at 12%; at Cannabinoid receptor 2 [5] it was 17%; in experiment [6] it was 4%; in experiment [10], 6%; in experiment [12], 38%. In addition, the Ki on Cannabinoid receptor 1 [2], on Cannabinoid receptor 1 [4] and on Cannabinoid receptor 2 [9] was above 10 µM each time. In addition, the IC50 in experiment [3] and in experiment [11] was above 10 µM in each case. The Activity in experiment [7] was found to be 13%; in experiment [8], 0%.
`C/C(=C1/N=C2SCCCCN2C1=O)c1ccccc1`: the inhibition is 10% at Cannabinoid receptor 1 [1]; 17% on Cannabinoid receptor 2 [5]; 4% in experiment [6]; 3% in experiment [10]; 25% in experiment [12]. The Ki at Cannabinoid receptor 1 [2], at Cannabinoid receptor 1 [4] and on Cannabinoid receptor 2 [9] was above 10 µM throughout. For the same compound, the IC50 in [3] and in experiment [11] was above 10 µM each time. Further, the Activity turned out to be 1% in experiment [7] and 14% in experiment [8].
`CCOC(=O)C1CN2C(=NC(=O)C2(c2ccccc2)c2ccccc2)S1` (stereo unspecified): the inhibition is 26% on Cannabinoid receptor 1 [1]; -5% at Cannabinoid receptor 2 [5]; 0% in experiment [6]; 0% in experiment [10]; 41% in [12]. In addition, the Ki on Cannabinoid receptor 1 [2], at Cannabinoid receptor 1 [4] and on Cannabinoid receptor 2 [9] was above 10 µM in each case. Also, the IC50 in experiment [3] and in experiment [11] was above 10 µM throughout. The results for the Activity in experiment [7] and in [8] were 58% and 7%, respectively.
As for `COc1ccc(/C=C2\N=C3SCCCN3C2=O)cc1`, the inhibition at Cannabinoid receptor 1 [1] was found to be 39%; on Cannabinoid receptor 2 [5], 6%; in [6], 10%; in [10] it was 5%; in experiment [12] it was 16%. Besides, the inhibition constant Ki at Cannabinoid receptor 1 [2], at Cannabinoid receptor 1 [4] and on Cannabinoid receptor 2 [9] was above 10 µM in each case. The IC50 in experiment [3] and in [11] was above 10 µM each time. For the same compound, the Activity in experiment [7] was 37%; in [8], 0%.
For `O=C1/C(=C/C=C/c2ccccc2)N=C2SCCCN12`, the inhibition at Cannabinoid receptor 1 [1] is 16%; on Cannabinoid receptor 2 [5], 37%; in [6], 0%; in [10], 18%; in experiment [12], 27%. Moreover, the Ki at Cannabinoid receptor 1 [2], on Cannabinoid receptor 1 [4] and on Cannabinoid receptor 2 [9] was above 10 µM throughout. The half-inhibitory concentration (IC50) in [3] and in [11] was above 10 µM throughout. In addition, the results for the Activity in [7] and in [8] were 29% and 7%, respectively.
In the case of `O=C1N=C2SCCCCN2C1(c1ccccc1)c1ccccc1`, the inhibition on Cannabinoid receptor 1 [1] worked out at 34%; on Cannabinoid receptor 2 [5] it was 10%; in [6], 0%; in experiment [12] it was 32%. Moreover, the figures for the Ki on Cannabinoid receptor 1 [2], on Cannabinoid receptor 1 [4] and at Cannabinoid receptor 2 [9] were 21.3 µM, above 10 µM and above 10 µM, respectively. Further, the IC50 in experiment [3] and in experiment [11] was above 10 µM each time. Also, the results for the Intrinsic activity (in experiment [13]; on Cannabinoid receptor 1 [14]) were -19% and -48%, respectively. Moreover, the Activity in [7] was 10%; in [8], 11%.
Take `O=C1/C(=C/c2cccc(Oc3ccccc3)c2)N=C2SCCCN12`: the inhibition was 29% at Cannabinoid receptor 1 [1], 9% at Cannabinoid receptor 2 [5], 54% in experiment [6] and 33% in [12]. Moreover, the Ki (usually the dissociation constant of the complex between target and ligand, obtained from inhibition or displacement) on Cannabinoid receptor 1 [2] was 6.58 µM; on Cannabinoid receptor 1 [4] it was above 10 µM; at Cannabinoid receptor 2 [9], above 10 µM. Also, the figures for the IC50 in experiment [3] and in experiment [11] were above 10 µM and 10 µM, respectively. In addition, the Intrinsic activity is -15% in [13] and -49% at Cannabinoid receptor 1 [14]. The Activity in experiment [7] was 13%; in experiment [8] it was 5%.
Turning to `COc1ccccc1/C=C1\N=C2SCCCN2C1=O`, the inhibition at Cannabinoid receptor 1 [1] was found to be 4%; on Cannabinoid receptor 2 [5], 27%; in experiment [6], 0%; in experiment [10], 4%; in [12], 33%. For the same compound, the Ki on Cannabinoid receptor 1 [2], at Cannabinoid receptor 1 [4] and on Cannabinoid receptor 2 [9] was above 10 µM in each case. In addition, the IC50 in [3] and in experiment [11] was above 10 µM in each case. The values for the Activity in experiment [7] and in experiment [8] were 12% and 0%, respectively.
In the case of `O=C1/C(=C/c2cccc([N+](=O)[O-])c2)N=C2SCCCN12`, the inhibition is 19% at Cannabinoid receptor 1 [1]; 10% on Cannabinoid receptor 2 [5]; 6% in experiment [6]; 8% in experiment [10]; 20% in experiment [12]. The Ki at Cannabinoid receptor 1 [2], at Cannabinoid receptor 1 [4] and at Cannabinoid receptor 2 [9] was above 10 µM each time. For the same compound, the IC50 in experiment [3] and in experiment [11] was above 10 µM throughout. For the same compound, the Activity in experiment [7] came to 21%; in experiment [8] it was 2%.
Regarding `O=C1/C(=C/c2cccc(Oc3ccccc3)c2)N=C2SCCCCN12`, the Ki was 3.63 µM on Cannabinoid receptor 1 [2], 1.6 µM on Cannabinoid receptor 1 [4] and above 10 µM at Cannabinoid receptor 2 [9]. Besides, the IC50 (commonly the concentration that gives 50% inhibition) is above 10 µM in experiment [3] and 14.1 µM in experiment [11]. The Intrinsic activity in experiment [13] was -21%; at Cannabinoid receptor 1 [14], -37%. Further, the inhibition came to 21% on Cannabinoid receptor 2 [5] and 33% in experiment [12]. Also, the Activity in experiment [7] is 5%; in [8], 1%.
For the compound `O=C1N=C2SCCN2C1(c1ccccc1)c1ccccc1`, the inhibition turned out to be 30% at Cannabinoid receptor 1 [1]; 6% on Cannabinoid receptor 2 [5]; 0% in experiment [6]; 13% in [10]; 31% in [12]. The inhibition constant (Ki) at Cannabinoid receptor 1 [2], on Cannabinoid receptor 1 [4] and on Cannabinoid receptor 2 [9] was above 10 µM each time. Also, the IC50 in experiment [3] and in experiment [11] was above 10 µM throughout. Moreover, the Activity is 50% in experiment [7] and 21% in [8].
For `O=C1/C(=C/c2ccc(Cl)cc2)N=C2SCCCN12`, the inhibition stood at 25% on Cannabinoid receptor 1 [1]; 23% at Cannabinoid receptor 2 [5]; 18% in [6]; 15% in experiment [10]; 35% in experiment [12]. In addition, the Ki at Cannabinoid receptor 1 [2], on Cannabinoid receptor 1 [4] and at Cannabinoid receptor 2 [9] was above 10 µM each time. Further, the IC50 in [3] and in experiment [11] was above 10 µM each time. The Activity came to 0% in experiment [7] and 13% in experiment [8].
As for `CCOC(=O)C1CN2C(=O)C(c3ccccc3)(c3ccccc3)N=C2S1` (stereo unspecified), the inhibition at Cannabinoid receptor 1 [1] is 2%; on Cannabinoid receptor 2 [5], 0%; in experiment [6], 0%; in experiment [10], 38%; in experiment [12], 10%. The Ki at Cannabinoid receptor 1 [2], at Cannabinoid receptor 1 [4] and on Cannabinoid receptor 2 [9] was above 10 µM each time. Further, the IC50 in [3] and in experiment [11] was above 10 µM throughout. The Activity in [7] came to 39%; in experiment [8], 11%.
Regarding `COc1ccc(/C=C2\N=C3SCCCN3C2=O)cc1OC`, the inhibition is 7% on Cannabinoid receptor 1 [1]; 18% at Cannabinoid receptor 2 [5]; 2% in [6]; 3% in experiment [10]; 12% in experiment [12]. Besides, the Ki at Cannabinoid receptor 1 [2], on Cannabinoid receptor 1 [4] and at Cannabinoid receptor 2 [9] was above 10 µM throughout. In addition, the IC50 in experiment [3] and in [11] was above 10 µM each time. The figures for the Activity in [7] and in experiment [8] were 6% and 0%, respectively.
Turning to `O=C1/C(=C/c2ccc(Br)cc2)N=C2SCCCN12`, the inhibition was determined as 29% at Cannabinoid receptor 1 [1]; 8% on Cannabinoid receptor 2 [5]; 13% in experiment [6]; 21% in experiment [10]; 16% in [12]. Moreover, the Ki at Cannabinoid receptor 1 [2], at Cannabinoid receptor 1 [4] and on Cannabinoid receptor 2 [9] was above 10 µM in each case. In addition, the IC50 in [3] and in [11] was above 10 µM in each case. Further, the Activity is 26% in experiment [7] and 0% in experiment [8].

(Values after ChEMBL document CHEMBL3217528, “Bicyclic imidazole-4-one derivatives: a new class of antagonists for the orphan G protein-coupled receptors GPR18 and GPR55” (Medchemcomm, 2014).)
